The values that follow come from patent US9969732B2, “Tetrahydroisoquinoline estrogen receptor modulators and uses thereof” (Genentech, Inc., priority 2016, dated 2018).

For the experiment, the target named is T1, ER-alpha (WT) (Homo sapiens, UniProt P03372).
T1 construct: endogenous in cells; host or cells: MCF7 breast cancer cells
T1 sequence (P03372 1-595): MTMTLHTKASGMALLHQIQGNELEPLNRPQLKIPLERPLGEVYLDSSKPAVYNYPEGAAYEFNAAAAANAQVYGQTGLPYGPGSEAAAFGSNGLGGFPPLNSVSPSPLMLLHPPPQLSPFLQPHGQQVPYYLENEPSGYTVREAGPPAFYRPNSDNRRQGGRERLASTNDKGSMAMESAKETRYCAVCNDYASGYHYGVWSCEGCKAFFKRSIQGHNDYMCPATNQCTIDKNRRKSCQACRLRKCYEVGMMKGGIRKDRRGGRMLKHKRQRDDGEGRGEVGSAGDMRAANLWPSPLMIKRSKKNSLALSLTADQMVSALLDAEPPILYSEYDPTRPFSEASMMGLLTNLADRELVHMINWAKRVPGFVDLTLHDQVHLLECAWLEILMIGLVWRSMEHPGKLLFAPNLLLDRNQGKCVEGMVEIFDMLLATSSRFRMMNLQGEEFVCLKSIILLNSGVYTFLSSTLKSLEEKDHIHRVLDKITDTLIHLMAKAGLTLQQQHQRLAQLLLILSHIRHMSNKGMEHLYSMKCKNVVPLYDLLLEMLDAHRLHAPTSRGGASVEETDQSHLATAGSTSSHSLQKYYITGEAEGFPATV
Description: Breast Cancer Cell ERa High Content Fluorescence Imaging Degradation Assay (MCF7 HCS). The settings on record: MCF7 breast cancer cells, 4 hours incubation; for EC50: inflexion point of curve; for ERalpha (WT) MCF7 HCS (S inf): plateau of the maximal effect, DMSO and Fulvestrant define 0% and 100% changes in ESR1. The class given is cell-based. As to the method: MCF7 breast cancer cells were seeded on day 1 at a density of 10,000 cells per well in 384 well poly-lysine coated tissue culture plate (Greiner #T-3101-4), in 50 μL/well RPMI (phenol red free), 10% FBS (Charcoal stripped), containing L-glutamine. […] Compounds and controls were dispensed using a Labcyte Echo acoustic dispenser to dispense compounds with a predefined serial dilution (1.8×, 10 point, in duplicate) and appropriate backfill and control compounds (final total volume transferred was 417.5 nL and compound dispense volume ranges from 2.5 nL to 417.5 nL; 0.84% DMSO (v/v) final), ultimately producing a concentration range from 0.05 nM to 835 nM. Cell plates were incubated at 37° C., for 4 hours. Fixation and permeabilization were carried out using a Biotek EL406 plate washer and dispenser as follows. Cells were fixed by addition of 15 μL of 16% paraformaldehyde (Electron Microscopy Sciences #15710-S) directly to the 50 μL cell culture medium in each well using the peristaltic pump 5 μL cassette on a Biotek EL406 (final concentration of formaldehyde was 3.7% w/v). Samples were incubated 30 minutes. Well contents was aspirated and 50 μL/well of Phosphate Buffered Saline (PBS) containing 0.5% w/v bovine serum albumen, 0.5% v/v Triton X-100 (Antibody Dilution Buffer) was added to each well. Samples were incubated for 30 minutes. Well contents were aspirated and washed 3 times with 100 μL/well of PBS. Immunofluorescence staining of estrogen receptor alpha (ESR1) was carried out using a Biotek EL406 plate washer and dispenser as follows. The well supernatant was aspirated from the wells and 25 μL/well of anti-ESR1 mAb (F10) (Santa Cruz sc-8002) diluted 1:1000 in Antibody Dilution Buffer was dispensed. Samples were incubated for 2 hours at room temperature. Samples were washed 4 times with 100 μL/well of PBS. 25 μL (microliters)/well of secondary antibody solution (Alexafluor® 488 conjugate anti-mouse IgG (LifeTechnologies #A21202) diluted 1:1000 and Hoechst 33342 1 μg/mL diluted in Antibody Dilution Buffer) were dispensed into each well. Samples were incubated for 2 hours at room temperature. Samples were washed 3 times with 100 μL/well of PBS using a Biotek EL406. Quantitative fluorescence imaging of ESR1 was carried out using a Cellomics Arrayscan V® (Thermo). Fluorescence images of the samples (Channel 1: XF53 Hoechst (DNA stain); Channel 2: XF53 FITC (ESR1 stain)) were acquired using a Cellomics VTI Arrayscan using the Bioapplication “Compartmental Analysis” using the auto-exposure (based on DMSO control wells) setting “peak target percentile” set to 25% target saturation for both channels. Channel 1 (DNA stain) was used to define the nuclear region (Circ). Measurements of “Mean_CircAvgIntCh2”, which is the Alexafluor 488 fluorescence intensity (ESR1) within the nuclear region, was measured on a per cell basis and averaged over all the measured cells. Data analysis was carried out using Genedata Screener Software, with DMSO and 5 nM Fulvestrant treated samples being used to define the 0% and 100% changes in ESR1. The “Robust Fit” method was used to define the inflexion point of curve (EC50) and the plateau of the maximal effect (Sinf).

`C[C@@H](CN1CCc2cc(O)ccc2[C@@]1(C)c1ccc(OCCN2CC(CF)C2)cc1)C(=O)O` [Example 136, (S)-3-((R)-1-(4-(2-(3-(fluoromethyl)azetidin-1-yl)ethoxy)phenyl)-6-hydroxy-1-methyl-3,4-dihydroisoquinolin-2(1H)-yl)-2-methylpropanoic acid] yielded an EC50 of at least 100 nM.
Take `C[C@]1(c2ccc(OCCN3CC(CF)C3)cc2)c2ccc(O)cc2CCN1CC(F)(F)CO` [Example 129, (S)-2-(2,2-difluoro-3-hydroxypropyl)-1-(4-(2-(3-(fluoromethyl)azetidin-1-yl)ethoxy)phenyl)-1-methyl-1,2,3,4-tetrahydroisoquinolin-6-ol]: the EC50 is 2.7 nM and the “ERalpha (WT) MCF7 HCS (S inf)” value is on record as −101%.
For `C[C@H](CN1CCc2cc(O)ccc2[C@@]1(C)c1ccc(OCCN2CC(CF)C2)cc1)C(=O)O` [Example 137, (R)-3-((R)-1-(4-(2-(3-(fluoromethyl)azetidin-1-yl)ethoxy)phenyl)-6-hydroxy-1-methyl-3,4-dihydroisoquinolin-2(1H)-yl)-2-methylpropanoic acid], in that order: 40 nM and −45%.
For `CC1(C)Cc2cc(O)ccc2[C@H](c2ccc(OCCN3CC(CF)C3)cc2)N1CC(F)(F)F` [Example 157, (S)-1-(4-(2-(3-(Fluoromethyl)azetidin-1-yl)ethoxy)phenyl)-3,3-dimethyl-2-(2,2,2-trifluoroethyl)-1,2,3,4-tetrahydroisoquinolin-6-ol], in that order: 0.48 nM and −98%.
For `Oc1ccc2c(c1)CCN(CC(F)(F)F)[C@@H]2c1c(F)cc(OCCN2CC(CF)C2)cc1F` [Example 134, (1S)-1-[2,6-difluoro-4-[2-[3-(fluoromethyl)azetidin-1-yl]ethoxy]phenyl]-2-(2,2,2-trifluoroethyl)-3,4-dihydro-1H-isoquinolin-6-ol], in that order: 0.013 nM and −98%.
Consider `Oc1ccc2c(c1)CCN(c1ccccc1)C2c1ccc(OCCN2CC(CF)C2)cc1` (stereo not shown) [Example 101, 1-[4-[2-[3-(fluoromethyl)azetidin-1-yl]ethoxy]phenyl]-2-phenyl-3,4-dihydro-1H-isoquinolin-6-ol], for which the half-maximal effective concentration (EC50) is 0.21 nM and the “ERalpha (WT) MCF7 HCS (S inf)” value is −99%.
As to `CC(=O)c1ccc2c(c1)C[C@H](C)N(CC(F)(F)CO)[C@H]2c1ccc(OCCN2CC(CF)C2)cc1` [Example 176, 1-((1S,3S)-2-(2,2-Difluoro-3-hydroxypropyl)-1-(4-(2-(3-(fluoromethyl)azetidin-1-yl)ethoxy)phenyl)-3-methyl-1,2,3,4-tetrahydroisoquinolin-6-yl)ethanone], the EC50 is over 100 nM.
For the molecule `C[C@H]1Cc2cc(O)ccc2[C@H](c2ccc(OCCN3CC(CF)C3)cc2)N1CC(F)(F)F` (single isomer, unassigned) [Example 131], the EC50 came to 1.4 nM and the “ERalpha (WT) MCF7 HCS (S inf)” value was −96%.
For `OCc1ccc2c(c1)CCN(CC(F)(F)F)[C@@H]2c1ccc(OCCN2CC(CF)C2)cc1` [Example 150, [(1R)-1-[4-[2-[3-(fluoromethyl)azetidin-1-yl]ethoxy]phenyl]-2-(2,2,2-trifluoroethyl)-3,4-dihydro-1H-isoquinolin-6-yl]methanol], in that order: 1.7 nM and −100%.
Take `FCC1CN(CCOc2ccc([C@H]3c4ccc(N5CCOCC5)cc4CCN3CC(F)(F)F)cc2)C1` [Example 147, 4-[(1S)-1-[4-[2-[3-(fluoromethyl)azetidin-1-yl]ethoxy]phenyl]-2-(2,2,2-trifluoroethyl)-3,4-dihydro-1H-isoquinolin-6-yl]morpholine]: the EC50 is at least 100 nM.
For the molecule `C[C@H]1Cc2cc(CO)ccc2[C@H](c2ccc(NC3CN(CCCF)C3)cc2)N1CC(F)(F)F` (single isomer, unassigned) [Example 169], the EC50 came to 37 nM and the “ERalpha (WT) MCF7 HCS (S inf)” value is listed as −60%.
For the molecule `C[C@@H]1Cc2cc(O)ccc2[C@@H](c2ccc(OCCN3CC(CF)C3)cc2)N1CC(F)(F)CO` [Example 166, (1R,3R)-2-(2,2-Difluoro-3-hydroxypropyl)-1-(4-(2-(3-(fluoromethyl)azetidin-1-yl)ethoxy)phenyl)-3-methyl-1,2,3,4-tetrahydroisoquinolin-6-ol], the midpoint of the response, the EC50, lay at 0.066 nM and the “ERalpha (WT) MCF7 HCS (S inf)” value is given as −105%.
With `Oc1ccc2c(c1)CCN(CC(F)(F)F)[C@H]2c1ccc(OCCN2CC(CF)C2)cc1` (single isomer, unassigned) [Example 153], the EC50 amounted to 0.54 nM and the “ERalpha (WT) MCF7 HCS (S inf)” value was −99%.
For `C[C@]1(c2ccc(OCCN3CC(CF)C3)cc2)c2ccc(O)cc2CCN1CC(F)(F)F` [Example 112, (1S)-1-[4-[2-[3-(fluoromethyl)azetidin-1-yl]ethoxy]phenyl]-1-methyl-2-(2,2,2-trifluoroethyl)-3,4-dihydroisoquinolin-6-ol], a half-maximal response (EC50) required 4.41 nM and the “ERalpha (WT) MCF7 HCS (S inf)” value is on record as −97%.
`FCC1CN(CCOc2ccc([C@H]3c4ccc(-c5cn[nH]c5)cc4CCN3CC(F)(F)F)cc2)C1` [Example 145, (1S)-1-[4-[2-[3-(fluoromethyl)azetidin-1-yl]ethoxy]phenyl]-6-(1H-pyrazol-4-yl)-2-(2,2,2-trifluoroethyl)-3,4-dihydro-1H-isoquinoline]: the EC50 is at least 100 nM and the “ERalpha (WT) MCF7 HCS (S inf)” value was −100%.
On to `C[C@@H]1Cc2ccccc2[C@@H](c2ccc(OCCN3CC(CF)C3)cc2)N1CC(F)(F)F` (single isomer, unassigned) [Example 156], for which the EC50 was determined as 0.85 nM and the “ERalpha (WT) MCF7 HCS (S inf)” value is −97%.
As to `C[C@@]1(c2ccc(OCCN3CC(CF)C3)cc2)c2ccc(O)cc2CCN1CC(F)(F)CO` [Example 130, (R)-2-(2,2-difluoro-3-hydroxypropyl)-1-(4-(2-(3-(fluoromethyl)azetidin-1-yl)ethoxy)phenyl)-1-methyl-1,2,3,4-tetrahydroisoquinolin-6-ol], the EC50 was determined as 0.042 nM and the “ERalpha (WT) MCF7 HCS (S inf)” value was −101%.
For `C[C@H]1Cc2c(ccc3[nH]ncc23)[C@H](c2c(F)cc(OCCN3CC(CF)C3)cc2F)N1CC(C)(C)F` (single isomer, unassigned) [Example 124], it took 3.23 nM to reach a half-maximal effect (EC50) and the “ERalpha (WT) MCF7 HCS (S inf)” value is given as −90%.
For `C[C@@H]1Cc2cc(CO)ccc2[C@@H](c2ccc(OCCN3CC(CF)C3)cc2)N1CC(F)(F)F` (single isomer, unassigned) [Example 159], in that order: 0.043 nM and −99%.
As to `Oc1ccc2c(c1)CCN(CC(F)(F)F)C2c1c(F)cc(OC2CN(CCCF)C2)cc1F` (single isomer, unassigned) [Example 144], the EC50 is 0.041 nM and the “ERalpha (WT) MCF7 HCS (S inf)” value is reported as −102%.

By EC50 is commonly meant the concentration needed to bring the measured effect to its halfway point. Lower therefore signals higher potency in that assay.
